One experiment has as its target CDK1/Cyclin B1 (Homo sapiens, UniProt P06493). The experiment can be described thus: CDK1/Cyclin B1 TR-FRET biochemical assay, 1 mM ATP. The following applies: 0.15 μM Rb (Ser780)-biotin substrate, 90 min reaction, Table 2. The procedure: (§1) Compounds disclosed herein were tested for inhibition of CDK2/Cyclin E1 or CDK1/Cyclin B kinase in an assay based on the time-resolved fluorescence-resonance energy transfer (TR-FRET) methodology. The assay was carried out in 384-well low volume black plates in a reaction mixture containing CDK2/Cyclin E1 or CDK1/Cyclin B1, 1 mM ATP for CDK2/Cyclin E1 and CDK1/Cyclin B1, 0.15 μM Rb (Ser780)-biotin substrate and 0-10 μM compound in buffer containing 50 mM HEPES pH7.0, 0.02% NaN3, 0.01% BSA, 0.1 mM Orthovanadate, 50 mM MgCl2, 1 mM DTT and 0.005% Tween-20. The kinase was incubated with compound for 60 minutes at room temperature and the reaction was initiated by the addition of ATP and Rb (Ser780)-biotin substrate. After reaction at room temperature for 90 minutes, an equal volume of stop/detection solution was added according to the manufacture's instruction (Cisbio Bioassays). The stop/detection solution contained Streptavidin-XL665 and Anti-pRb (Ser780) mAb-Eu Cryptate in Detection buffer (Cisbio Bioassays). Plates were incubated at room temperature for 60 minutes, and the TR-FRET signals (ex337 nm, em665 nm/620 nm) were recorded on a PHERAstar FSX plate reader (BMG Labtech). The inhibition percentage of CDK2/Cyclin E1 or CDK1/Cyclin B1 kinase activity in presence of increasing concentrations of compounds was calculated based on the ratio of fluorescence at 665 nm to that at 620 nm. The IC50 for each compound was derived from fitting the data to the four-parameter logistic equation by Dotmatics.

The target in the next experiment is CDK2/Cyclin E1 (Homo sapiens, UniProt P24941). Nature of the experiment: CDK2/Cyclin E1 TR-FRET biochemical assay, 1 mM ATP. As to conditions: 0.15 μM Rb (Ser780)-biotin substrate, 90 min reaction, Table 2. The method, then:
as §1

Each structure is given as a SMILES string. Where only a bound is given, the exact number is not on record here.

CDK1/Cyclin B1, sequence (P06493 whole entry): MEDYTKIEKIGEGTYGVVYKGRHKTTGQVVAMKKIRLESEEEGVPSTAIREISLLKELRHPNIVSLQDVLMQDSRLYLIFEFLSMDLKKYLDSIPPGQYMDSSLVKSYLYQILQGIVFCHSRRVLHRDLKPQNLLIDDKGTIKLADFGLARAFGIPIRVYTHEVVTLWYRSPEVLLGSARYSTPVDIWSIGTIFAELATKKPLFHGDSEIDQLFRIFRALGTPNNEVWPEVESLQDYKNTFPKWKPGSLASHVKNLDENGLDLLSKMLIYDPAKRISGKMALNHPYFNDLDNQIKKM
CDK1/Cyclin B1, sequence (P14635 whole entry partner): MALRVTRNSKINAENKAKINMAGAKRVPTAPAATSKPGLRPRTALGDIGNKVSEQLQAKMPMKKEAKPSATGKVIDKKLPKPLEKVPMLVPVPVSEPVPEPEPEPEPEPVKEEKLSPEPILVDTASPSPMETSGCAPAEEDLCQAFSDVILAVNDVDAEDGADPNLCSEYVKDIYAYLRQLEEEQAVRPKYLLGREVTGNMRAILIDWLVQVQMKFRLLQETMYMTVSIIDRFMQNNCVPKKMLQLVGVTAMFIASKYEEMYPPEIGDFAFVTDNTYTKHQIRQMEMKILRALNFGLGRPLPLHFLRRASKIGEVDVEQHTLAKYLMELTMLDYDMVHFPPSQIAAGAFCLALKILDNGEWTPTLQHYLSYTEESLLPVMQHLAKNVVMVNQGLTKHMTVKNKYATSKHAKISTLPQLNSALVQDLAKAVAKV

As to `CCOC(=O)c1nc(C2CCC(c3cc(Nc4ccc5c(c4F)CNS5(=O)=O)n[nH]3)C2)oc1C(C)(C)C` (centres unmarked) [Example 114, ethyl 5-(tert-butyl)-2-(3-(3-((4-fluoro-1,1-dioxido-2,3-dihydrobenzo[d]isothiazol-5-yl)amino)-1H-pyrazol-5-yl)cyclopentyl)oxazole-4-carboxylate], the IC50 on CDK1/Cyclin B1 is over 10000 nM; on CDK2/Cyclin E1, 429 nM.

On to `CC(C)(C)c1nnc([C@@H]2CC[C@H](c3cc(Nc4ccc5c(c4F)CS(=O)(=O)N5)n[nH]3)C2)o1` (relative stereo) [Example 146, cis-5-((5-(3-(5-(tert-butyl)-1,3,4-oxadiazol-2-yl)cyclopentyl)-1H-pyrazol-3-yl)amino)-4-fluoro-1,3-dihydrobenzo[c]isothiazole 2,2-dioxide], for which the 50% inhibitory concentration (IC50) at CDK1/Cyclin B1 is over 10000 nM; against CDK2/Cyclin E1 it was 74 nM.

Take `CC(C)(C)c1ccnnc1O[C@@H]1CC[C@H](c2cc(Nc3ccc4c(c3F)CNS4(=O)=O)n[nH]2)C1` (relative stereo) [Example 37, cis-5-((5-(3-((4-(tert-butyl)pyridazin-3-yl)oxy)cyclopentyl)-1H-pyrazol-3-yl)amino)-4-fluoro-2,3-dihydrobenzo[d]isothiazole 1,1-dioxide]: the IC50 on CDK1/Cyclin B1 came to 11 nM; on CDK2/Cyclin E1, 0.5 nM.

On to `CC(C)(C)c1cnnc(C2CCC(c3cc(Nc4ccc5c(c4F)CS(=O)(=O)N5)n[nH]3)C2)c1` (centres unmarked) [Example 163, 5-((5-(3-(5-(tert-butyl)pyridazin-3-yl)cyclopentyl)-1H-pyrazol-3-yl)amino)-4-fluoro-1,3-dihydrobenzo[c]isothiazole 2,2-dioxide], for which the figures for the 50% inhibitory concentration (IC50) against CDK1/Cyclin B1 and at CDK2/Cyclin E1 were 2020 nM and 16 nM, respectively.

In the case of `CC(C)(C)c1cnc(C2CCC(c3cc(Nc4ccc5c(c4F)CCS(=O)(=O)N5)n[nH]3)C2)o1` (centres unmarked) [Example 166, 6-((5-(3-(5-(tert-butyl)oxazol-2-yl)cyclopentyl)-1H-pyrazol-3-yl)amino)-5-fluoro-3,4-dihydro-1H-benzo[c][1,2]thiazine 2,2-dioxide], the IC50 against CDK1/Cyclin B1 came out at 202 nM; against CDK2/Cyclin E1 it was 0.9 nM.

In the case of `CCc1ccnc(C2CCC(c3cc(Nc4ccc5c(c4F)CNS5(=O)=O)n[nH]3)C2)n1` (centres unmarked) [Example 125, 5-((5-(3-(4-ethylpyrimidin-2-yl)cyclopentyl)-1H-pyrazol-3-yl)amino)-4-fluoro-2,3-dihydrobenzo[d]isothiazole 1,1-dioxide], the results for the IC50 on CDK1/Cyclin B1 and against CDK2/Cyclin E1 were 2760 nM and 40 nM, respectively.

Consider `CC(C)c1cnc(C2CCC(c3cc(Nc4ccc5c(c4)CS(=O)(=O)N5)n[nH]3)C2)o1` (single isomer, unassigned) [Example 138b, cis-5-((5-(3-(5-isopropyloxazol-2-yl)cyclopentyl)-1H-pyrazol-3-yl)amino)-1,3-dihydrobenzo[c]isothiazole 2,2-dioxide], for which the figures for the concentration for half-maximal inhibition (IC50) at CDK1/Cyclin B1 and at CDK2/Cyclin E1 were 2420 nM and 12 nM, respectively.

As for `Cc1cccc(C2CCC(c3cc(Nc4ccc5c(c4F)CNS5(=O)=O)n[nH]3)C2)n1` (centres unmarked) [Example 120, 4-fluoro-5-((5-(3-(6-methylpyridin-2-yl)cyclopentyl)-1H-pyrazol-3-yl)amino)-2,3-dihydrobenzo[d]isothiazole 1,1-dioxide], the 50% inhibitory concentration (IC50) was over 10000 nM on CDK1/Cyclin B1 and 4410 nM at CDK2/Cyclin E1.

In the case of `CC(C)(C)c1nnc([C@@H]2CC[C@H](c3cc(Nc4ccc5c(c4F)CNS5(=O)=O)n[nH]3)C2)o1` (relative stereo) [Example 96, cis-5-((5-(3-(5-(tert-butyl)-1,3,4-oxadiazol-2-yl)cyclopentyl)-1H-pyrazol-3-yl)amino)-4-fluoro-2,3-dihydrobenzo[d]isothiazole 1,1-dioxide], the IC50 at CDK1/Cyclin B1 was over 10000 nM; against CDK2/Cyclin E1, 314 nM.

Regarding `CC(C)(C)n1ccc(C2CCC(c3cc(Nc4ccc5c(c4F)CNS5(=O)=O)n[nH]3)C2)n1` (centres unmarked) [Example 98, 5-((5-(3-(1-(tert-butyl)-1H-pyrazol-3-yl)cyclopentyl)-1H-pyrazol-3-yl)amino)-4-fluoro-2,3-dihydrobenzo[d]isothiazole 1,1-dioxide], the 50% inhibitory concentration (IC50) at CDK1/Cyclin B1 was over 10000 nM; against CDK2/Cyclin E1, 453 nM.

Take `CC(C)(C)c1ccc(C2CCC(c3cc(Nc4cc5c(cc4F)S(=O)(=O)NC5)n[nH]3)C2)nc1` (centres unmarked) [Example 10, 5-((3-(3-(5-(tert-butyl)pyridin-2-yl)cyclopentyl)-1H-pyrazol-5-yl)amino)-6-fluoro-2,3-dihydrobenzo[d]isothiazole 1,1-dioxide]: the IC50 against CDK1/Cyclin B1 and on CDK2/Cyclin E1 was over 10000 nM each time.

For the compound `CC(C)(C)c1ccc([C@H]2CC[C@H](c3cc(Nc4ccc5c(c4F)CNS5(=O)=O)n[nH]3)C2)o1` (relative stereo) [Example 108, trans-5-((5-(3-(5-(tert-butyl)furan-2-yl)cyclopentyl)-1H-pyrazol-3-yl)amino)-4-fluoro-2,3-dihydrobenzo[d]isothiazole 1,1-dioxide], the IC50 is over 10000 nM on CDK1/Cyclin B1 and 8510 nM against CDK2/Cyclin E1.

Consider `CC(C)(C)c1coc(C2CCC(c3cc(Nc4ccc5c(c4F)CNS5(=O)=O)n[nH]3)C2)n1` (centres unmarked) [Example 94, 5-((5-(3-(4-(tert-butyl)oxazol-2-yl)cyclopentyl)-1H-pyrazol-3-yl)amino)-4-fluoro-2,3-dihydrobenzo[d]isothiazole 1,1-dioxide], for which the values for the half-inhibitory concentration (IC50) on CDK1/Cyclin B1 and on CDK2/Cyclin E1 were over 10000 nM and 417 nM, respectively.

In the case of `CC(C)(C)c1cccc(C2CCC(c3cc(Nc4ccc5c(c4F)CNS5(=O)=O)n[nH]3)C2)c1` (centres unmarked) [Example 132, 5-((5-(3-(3-(tert-butyl)phenyl)cyclopentyl)-1H-pyrazol-3-yl)amino)-4-fluoro-2,3-dihydrobenzo[d]isothiazole 1,1-dioxide], the IC50 against CDK1/Cyclin B1 and against CDK2/Cyclin E1 was over 10000 nM throughout.

For `CC(C)(O)c1cc(C2CCC(c3cc(Nc4ccc5c(c4F)CNS5(=O)=O)n[nH]3)C2)n[nH]1` (centres unmarked) [Example 101, 4-fluoro-5-((5-(3-(5-(2-hydroxypropan-2-yl)-1H-pyrazol-3-yl)cyclopentyl)-1H-pyrazol-3-yl)amino)-2,3-dihydrobenzo[d]isothiazole 1,1-dioxide], the IC50 against CDK1/Cyclin B1 is over 10000 nM; at CDK2/Cyclin E1 it was 564 nM.

As for `CC(C)(C)c1cc(C2CCC(c3cc(Nc4ccc5c(c4F)CS(=O)(=O)N5)n[nH]3)C2)ccn1` (centres unmarked) [Example 161, 5-((5-(3-(2-(tert-butyl)pyridin-4-yl)cyclopentyl)-1H-pyrazol-3-yl)amino)-4-fluoro-1,3-dihydrobenzo[c]isothiazole 2,2-dioxide], the results for the IC50 against CDK1/Cyclin B1 and on CDK2/Cyclin E1 were over 10000 nM and 1060 nM, respectively.

`CC(C)c1cnc(C2CCC(c3cc(Nc4ccc5c(c4F)CS(=O)(=O)N5)n[nH]3)C2)o1` (single isomer, unassigned) [Example 152b, cis-4-fluoro-5-((5-(3-(5-isopropyloxazol-2-yl)cyclopentyl)-1H-pyrazol-3-yl)amino)-1,3-dihydrobenzo[c]isothiazole 2,2-dioxide]: the IC50 at CDK1/Cyclin B1 is 4580 nM; at CDK2/Cyclin E1 it was 19 nM.

Regarding `CC(C)c1cnc(C2CCC(c3cc(Nc4ccc5c(c4)CS(=O)(=O)N5C)n[nH]3)C2)o1` (centres unmarked) [Example 143, 5-((5-(3-(5-isopropyloxazol-2-yl)cyclopentyl)-1H-pyrazol-3-yl)amino)-1-methyl-1,3-dihydrobenzo[c]isothiazole 2,2-dioxide], the concentration for half-maximal inhibition (IC50) against CDK1/Cyclin B1 is 1320 nM; on CDK2/Cyclin E1, 14 nM.

For the compound `CC(C)c1cnc(C2CCC(c3cc(Nc4ccc5c(c4F)CN=S5(C)=O)n[nH]3)C2)o1` (centres unmarked) [Example 170], the IC50 turned out to be 1440 nM against CDK1/Cyclin B1 and 5.4 nM on CDK2/Cyclin E1.
